Measured values published in US6589566B2, “Composition comprising theanine” (priority 1998, dated 2003).

Key:
[1] = test system: women complaining of premenstrual syndrome symptoms; assay: Test Example 5: premenstrual syndrome questionnaire, powdered L-theanine; format: in vivo, humans; settings: 20 women, 50 mg powdered L-theanine per day during corpus lutea stage
Experimental: A test for assessing the premenstrual syndrome-suppressive effect of the inventive product was performed in 20 women complaining of 5 or more premenstrual syndrome symptoms. The inventive product used herein was powdered L-theanine as prepared in Example 1. Each subject was requested to measure their basal body temperature upon awaking for 2 months. […] During the test period, physical symptoms, mental symptoms and social symptoms were recorded in detail everyday. On the first day of the third menstruation, the test was terminated and a questionnaire survey was conducted. Questionnaire Survey Concerning Premenstrual Syndrome of Test Example 5 1. Were PMS symptoms suppressed ? 1) having remarkable effects; 2) having some effects; 3) having slight effects; 4) none. 2. For those selected 1), 2) or 3) in 1., were there any improvements in the daily life ? […] 3. For those selected 1), 2) or 3) in 1., please give specifics: […]

male and female subjects = assay: Test Example 4: anxiety group after coffee extract beverage containing L-theanine; format: in vivo, humans; settings: 10 times per day for one month, 7 subjects
Experimental: Each of male and female subjects consisting of a total of 7 members was given a beverage prepared by dissolving the L-theanine obtained in Examples 1 and 2 at amounts of 0 mg, 60 mg, 300 mg or 1200 mg in 100 g of coffee extract in boiling water (equivalent to about 1 mg/kg, about 5 mg/kg, and about […], respectively) 10 times per day for one month.

ICR male mice = assay: Example 11: amount of spontaneous exercise, rotatable cage; format: in vivo; settings: oral 10 ml of 1% by weight aqueous solution per 1 kg body weight, versus non-administered group
Experimental: Ten ICR male mice were each orally administered with 10 ml of a 1% by weight theanine aqueous solution, per 1 kg of body weight, and the mice were allowed to stand in an inhalation box. The administered group of mice were compared with the 10 non-administered group of mice, wherein the amount of excercise was evaluated by counting the number of rotations of the rotatable cage for 60 minutes.

mice = format: in vivo; settings: oral administration of 2 g/kg
Excerpt: Theanine, formulated in the theanine-containing composition of the present invention, is a glutamic acid derivative contained in tea-leaves, which is the main component of deliciousness (umami) of tea. It is also used as a food additive for seasoning. […] As described above, the theanine is an extremely safe substance.

[2] = Theanine content 60 mg in 100 g coffee extract
[3] = Theanine content 300 mg in 100 g coffee extract
[4] = Theanine content 1200 mg in 100 g coffee extract

CCNC(=O)CC[C@H](N)C(=O)O [L-theanine]
Were PMS symptoms suppressed? 4) none [1]: 0 subjects (0%).
High-Anxiety Group (number of subjects) (male and female subjects; [2]): 2
Low-Anxiety Group (number of subjects) (male and female subjects; [2]): 2
Moderate-Anxiety Group (number of subjects) (male and female subjects; [2]): 3
High-Anxiety Group (number of subjects) (male and female subjects; [3]): 0
Low-Anxiety Group (number of subjects) (male and female subjects; [3]): 0
Moderate-Anxiety Group (number of subjects) (male and female subjects; [3]): 1
High-Anxiety Group (number of subjects) (male and female subjects; [4]): 0
Low-Anxiety Group (number of subjects) (male and female subjects; [4]): 7
Moderate-Anxiety Group (number of subjects) (male and female subjects; [4]): 0
amount of exercise (number of rotations of the rotatable cage for 60 minutes) (ICR male mice): significant decrease
dead cases in acute toxicity test (mice): no dead cases
